Measurements reported in patent US20240415914A1, “Water Dispersible Cannabinoid Compositions” (priority 2021, published 2024).
Like-named read-outs stand apart in the source and are kept apart here.

Assays:
[1] = type: physicochemical; settings: stored at room temperature (21-25° C.)
Description: At each time period, 0.05 g of powder was dissolved in 10 ml-15 of ethanol, diluted to fall within the analytical range, and injected into the LCMSMS for analysis.

[2] = Stability of cannabinoid and Vitamin E components of Beverage 2 (AB Red) stored at 8° C. and 21-25° C., LCMSMS over 570 days
Description: The LCMSMS was calibrated for 0-50 ng/ml cannabinoids with the same resin material used in the preparation of the concentrates. At each time period, 100 μml of beverage was diluted with 10 ml of methanol and injected into the LCMSMS for analysis.

CCCCCc1cc(O)c2c(c1)OC(C)(CCC=C(C)C)C=C2 (stereo not shown) [CBC, cannabichromene]
Stability in Powder Concentrate (content by LCMSMS) ([1]; day 0): 0.070 mg/g powder
Stability in Powder Concentrate (content by LCMSMS) ([1]; day 1): 0.072 mg/g powder
Stability in Powder Concentrate (content by LCMSMS) ([1]; day 2): 0.071 mg/g powder
Stability in Powder Concentrate (content by LCMSMS) ([1]; day 3): 0.073 mg/g powder
Stability in Powder Concentrate (content by LCMSMS) ([1]; day 5): 0.070 mg/g powder
Stability in Powder Concentrate (content by LCMSMS) ([1]; day 8): 0.071 mg/g powder
Stability in Powder Concentrate (content by LCMSMS) ([1]; day 9): 0.068 mg/g powder
Stability in Powder Concentrate (content by LCMSMS) ([1]; day 10): 0.071 mg/g powder
Stability in Powder Concentrate (content by LCMSMS) ([1]; day 11): 0.071 mg/g powder
Stability in Powder Concentrate (content by LCMSMS) ([1]; day 12): 0.069 mg/g powder
Stability in Powder Concentrate (content by LCMSMS) ([1]; day 15): 0.073 mg/g powder
Stability in Powder Concentrate (content by LCMSMS) ([1]; day 16): 0.073 mg/g powder
Stability in Powder Concentrate (content by LCMSMS) ([1]; day 17): 0.070 mg/g powder
Stability in Powder Concentrate (content by LCMSMS) ([1]; day 18): 0.072 mg/g powder
Stability in Powder Concentrate (content by LCMSMS) ([1]; day 19): 0.070 mg/g powder
Stability in Powder Concentrate (content by LCMSMS) ([1]; day 22): 0.071 mg/g powder
Stability in Powder Concentrate (content by LCMSMS) ([1]; day 23): 0.069 mg/g powder
Stability in Powder Concentrate (content by LCMSMS) ([1]; day 24): 0.068 mg/g powder
Stability in Powder Concentrate (content by LCMSMS) ([1]; day 25): 0.072 mg/g powder
Stability in Powder Concentrate (content by LCMSMS) ([1]; day 26): 0.071 mg/g powder
Stability in Powder Concentrate (content by LCMSMS) ([1]; day 29): 0.069 mg/g powder
Stability in Powder Concentrate (content by LCMSMS) ([1]; day 30): 0.072 mg/g powder
Stability in Powder Concentrate (content by LCMSMS) ([1]; day 60): 0.068 mg/g powder
Stability in Powder Concentrate (content by LCMSMS) ([1]; day 90): 0.068 mg/g powder
Stability in Powder Concentrate (content by LCMSMS) ([1]; day 120): 0.072 mg/g powder
Stability in Powder Concentrate (content by LCMSMS) ([1]; day 150): 0.072 mg/g powder
Stability in Powder Concentrate (content by LCMSMS) ([1]; day 180): 0.071 mg/g powder
Stability in Powder Concentrate (content by LCMSMS) ([1]; day 210): 0.072 mg/g powder
Stability in Powder Concentrate (content by LCMSMS) ([1]; day 240): 0.068 mg/g powder
Stability in Powder Concentrate (content by LCMSMS) ([1]; day 270): 0.072 mg/g powder
Stability in Powder Concentrate (content by LCMSMS) ([1]; day 300): 0.071 mg/g powder
Stability in Powder Concentrate (content by LCMSMS) ([1]; day 330): 0.069 mg/g powder
Stability in Powder Concentrate (content by LCMSMS) ([1]; day 360): 0.068 mg/g powder
Stability in Powder Concentrate (content by LCMSMS) ([1]; day 390): 0.068 mg/g powder
Stability in Powder Concentrate (content by LCMSMS) ([1]; day 420): 0.069 mg/g powder
Stability in Powder Concentrate (content by LCMSMS) ([1]; day 450): 0.073 mg/g powder
Stability in Powder Concentrate (content by LCMSMS) ([1]; day 480): 0.071 mg/g powder
Stability in Powder Concentrate (content by LCMSMS) ([1]; day 510): 0.069 mg/g powder
Stability in Powder Concentrate (content by LCMSMS) ([1]; day 540): 0.070 mg/g powder
Stability in Powder Concentrate (content by LCMSMS) ([1]; day 570): 0.069 mg/g powder
Stability of Cannabinoids in AB Red ([2]; 8° C., 0 days): 0.290 µg/mL
Stability of Cannabinoids in AB Red ([2]; 8° C., 1 days): 0.289 µg/mL
Stability of Cannabinoids in AB Red ([2]; 8° C., 2 days): 0.292 µg/mL
Stability of Cannabinoids in AB Red ([2]; 8° C., 3 days): 0.285 µg/mL
Stability of Cannabinoids in AB Red ([2]; 8° C., 5 days): 0.286 µg/mL
Stability of Cannabinoids in AB Red ([2]; 8° C., 8 days): 0.286 µg/mL
Stability of Cannabinoids in AB Red ([2]; 8° C., 9 days): 0.288 µg/mL
Stability of Cannabinoids in AB Red ([2]; 8° C., 10 days): 0.288 µg/mL
Stability of Cannabinoids in AB Red ([2]; 8° C., 11 days): 0.284 µg/mL
Stability of Cannabinoids in AB Red ([2]; 8° C., 12 days): 0.285 µg/mL
Stability of Cannabinoids in AB Red ([2]; 8° C., 15 days): 0.292 µg/mL
Stability of Cannabinoids in AB Red ([2]; 8° C., 16 days): 0.283 µg/mL
Stability of Cannabinoids in AB Red ([2]; 8° C., 17 days): 0.282 µg/mL
Stability of Cannabinoids in AB Red ([2]; 8° C., 18 days): 0.289 µg/mL
Stability of Cannabinoids in AB Red ([2]; 8° C., 19 days): 0.287 µg/mL
Stability of Cannabinoids in AB Red ([2]; 8° C., 22 days): 0.287 µg/mL
Stability of Cannabinoids in AB Red ([2]; 8° C., 23 days): 0.287 µg/mL
Stability of Cannabinoids in AB Red ([2]; 8° C., 24 days): 0.291 µg/mL
Stability of Cannabinoids in AB Red ([2]; 8° C., 25 days): 0.287 µg/mL
Stability of Cannabinoids in AB Red ([2]; 8° C., 26 days): 0.287 µg/mL
Stability of Cannabinoids in AB Red ([2]; 8° C., 29 days): 0.284 µg/mL
Stability of Cannabinoids in AB Red ([2]; 8° C., 30 days): 0.282 µg/mL
Stability of Cannabinoids in AB Red ([2]; 8° C., 60 days): 0.278 µg/mL
Stability of Cannabinoids in AB Red ([2]; 8° C., 90 days): 0.287 µg/mL
Stability of Cannabinoids in AB Red ([2]; 8° C., 120 days): 0.289 µg/mL
Stability of Cannabinoids in AB Red ([2]; 8° C., 150 days): 0.281 µg/mL
Stability of Cannabinoids in AB Red ([2]; 8° C., 180 days): 0.285 µg/mL
Stability of Cannabinoids in AB Red ([2]; 8° C., 210 days): 0.282 µg/mL
Stability of Cannabinoids in AB Red ([2]; 8° C., 240 days): 0.280 µg/mL
Stability of Cannabinoids in AB Red ([2]; 8° C., 270 days): 0.284 µg/mL
Stability of Cannabinoids in AB Red ([2]; 8° C., 300 days): 0.280 µg/mL
Stability of Cannabinoids in AB Red ([2]; 8° C., 330 days): 0.278 µg/mL
Stability of Cannabinoids in AB Red ([2]; 8° C., 390 days): 0.282 µg/mL
Stability of Cannabinoids in AB Red ([2]; 8° C., 420 days): 0.277 µg/mL
Stability of Cannabinoids in AB Red ([2]; 8° C., 450 days): 0.282 µg/mL
Stability of Cannabinoids in AB Red ([2]; 8° C., 480 days): 0.274 µg/mL
Stability of Cannabinoids in AB Red ([2]; 8° C., 510 days): 0.267 µg/mL
Stability of Cannabinoids in AB Red ([2]; 8° C., 540 days): 0.271 µg/mL
Stability of Cannabinoids in AB Red ([2]; 8° C., 570 days): 0.266 µg/mL
Stability of Cannabinoids in AB Red ([2]; 21-25° C., 0 days): 0.29 µg/mL
Stability of Cannabinoids in AB Red ([2]; 21-25° C., 1 days): 0.28 µg/mL
Stability of Cannabinoids in AB Red ([2]; 21-25° C., 2 days): 0.28 µg/mL
Stability of Cannabinoids in AB Red ([2]; 21-25° C., 3 days): 0.29 µg/mL
Stability of Cannabinoids in AB Red ([2]; 21-25° C., 5 days): 0.28 µg/mL
Stability of Cannabinoids in AB Red ([2]; 21-25° C., 8 days): 0.28 µg/mL
Stability of Cannabinoids in AB Red ([2]; 21-25° C., 9 days): 0.28 µg/mL
Stability of Cannabinoids in AB Red ([2]; 21-25° C., 10 days): 0.29 µg/mL
Stability of Cannabinoids in AB Red ([2]; 21-25° C., 11 days): 0.29 µg/mL
Stability of Cannabinoids in AB Red ([2]; 21-25° C., 12 days): 0.28 µg/mL
Stability of Cannabinoids in AB Red ([2]; 21-25° C., 15 days): 0.28 µg/mL
Stability of Cannabinoids in AB Red ([2]; 21-25° C., 16 days): 0.28 µg/mL
Stability of Cannabinoids in AB Red ([2]; 21-25° C., 17 days): 0.28 µg/mL
Stability of Cannabinoids in AB Red ([2]; 21-25° C., 18 days): 0.29 µg/mL
Stability of Cannabinoids in AB Red ([2]; 21-25° C., 19 days): 0.29 µg/mL
Stability of Cannabinoids in AB Red ([2]; 21-25° C., 22 days): 0.29 µg/mL
Stability of Cannabinoids in AB Red ([2]; 21-25° C., 23 days): 0.28 µg/mL
Stability of Cannabinoids in AB Red ([2]; 21-25° C., 24 days): 0.29 µg/mL
Stability of Cannabinoids in AB Red ([2]; 21-25° C., 25 days): 0.28 µg/mL
Stability of Cannabinoids in AB Red ([2]; 21-25° C., 26 days): 0.28 µg/mL
Stability of Cannabinoids in AB Red ([2]; 21-25° C., 29 days): 0.29 µg/mL
Stability of Cannabinoids in AB Red ([2]; 21-25° C., 30 days): 0.29 µg/mL
Stability of Cannabinoids in AB Red ([2]; 21-25° C., 60 days): 0.29 µg/mL
Stability of Cannabinoids in AB Red ([2]; 21-25° C., 90 days): 0.28 µg/mL
Stability of Cannabinoids in AB Red ([2]; 21-25° C., 120 days): 0.29 µg/mL
Stability of Cannabinoids in AB Red ([2]; 21-25° C., 150 days): 0.29 µg/mL
Stability of Cannabinoids in AB Red ([2]; 21-25° C., 180 days): 0.28 µg/mL
Stability of Cannabinoids in AB Red ([2]; 21-25° C., 210 days): 0.29 µg/mL
Stability of Cannabinoids in AB Red ([2]; 21-25° C., 240 days): 0.28 µg/mL
Stability of Cannabinoids in AB Red ([2]; 21-25° C., 270 days): 0.29 µg/mL
Stability of Cannabinoids in AB Red ([2]; 21-25° C., 300 days): 0.29 µg/mL
Stability of Cannabinoids in AB Red ([2]; 21-25° C., 330 days): 0.29 µg/mL
Stability of Cannabinoids in AB Red ([2]; 21-25° C., 390 days): 0.28 µg/mL
Stability of Cannabinoids in AB Red ([2]; 21-25° C., 420 days): 0.28 µg/mL
Stability of Cannabinoids in AB Red ([2]; 21-25° C., 450 days): 0.28 µg/mL
Stability of Cannabinoids in AB Red ([2]; 21-25° C., 480 days): 0.28 µg/mL
Stability of Cannabinoids in AB Red ([2]; 21-25° C., 510 days): 0.27 µg/mL
Stability of Cannabinoids in AB Red ([2]; 21-25° C., 540 days): 0.28 µg/mL
Stability of Cannabinoids in AB Red ([2]; 21-25° C., 570 days): 0.27 µg/mL
